The record followed here is paper PMC8468421, “Synthesis and Biological Evaluation of 1,2,3-Triazole Tethered Thymol-1,3,4-Oxadiazole Derivatives as Anticancer and Antimicrobial Agents” (Pharmaceuticals, 2021).

One data set has as its system HCT-116. The experiment in a line: Antiproliferative activity, MTT assay, HCT-116. As to conditions: Homo sapiens, HCT-116, read-out: Cytotoxicity IC50 HCT-116. The source says: (§1) The compounds were screened on breast (MCF-7), liver (HepG2), and colorectal (HCT-116) cancer cells, obtained from American Type culture Collection (ATCC); 0.1% of DMSO was used as a vehicle control.

Another data set has as its system HepG2. In words: Antiproliferative activity, MTT assay, HepG2. As to conditions: for IC50: Homo sapiens, HepG2, read-out: Cytotoxicity IC50 HepG2.
Text: as §1

The test system of another data set is MCF-7. The experiment in a line: Antiproliferative activity, MTT assay, MCF-7. As to conditions: for IC50: Homo sapiens, MCF7, read-out: Cytotoxicity IC50 MCF-7.
Text: as §1
For orientation: Formazan colour is commonly taken as a measure of viable cells.

The test system of another data set is E. coli (ATCC 31218). In words: Antimicrobial activity, agar well zone of inhibition, E. coli. In kind it is cell-based, Escherichia coli. As to conditions: 10 μL of 10 mg/mL in 50% DMSO per well, overnight 37 °C, --- = no zone of inhibition; for zone of inhibition at 10000 µg/mL: Escherichia coli, ATCC31218. Here is the method: (§2) The antimicrobial activity of the final compounds was performed by reported methods.The bacterial strains, E. coli (Gram negative), S. aureus (Gram positive), and fungi, Candida albicans, were used for the study. Luria broth Agar and Sabouraud Dextrose Agar were prepared into a petri dish using 25 mL of autoclaved media; 100 μL of diluted broth of freshly prepared E. coli, S. aureus, and C. albicans were spread on Luria Broth Agar and Sabouraud Agar plates, respectively. Then, 7 wells of 50 μL capacity were punched on each plate. Samples 5–18 (10 μL of 10 mg/mL standard prepared in 50% DMSO) were placed in each plate’s well in different plate sets. All the plates were incubated for overnight at 37 °C in an incubator shaker. The inhibition zone was calculated in triplicate.

In data set [1] the target is Thymidylate synthase (TS) (Homo sapiens, UniProt P04818). In words: Thymidylate synthase (TS) enzymatic assay.
The next data set deals with S. aureus (ATCC 29213). The experiment in a line: Antimicrobial activity, agar well zone of inhibition, S. aureus. In kind it is cell-based, Staphylococcus aureus. As to conditions: 10 μL of 10 mg/mL in 50% DMSO per well, overnight 37 °C, --- = no zone of inhibition; for zone of inhibition at 10000 µg/mL: Staphylococcus aureus, ATCC29213. Here is the method:
as §2

The subject of the next data set is C. albicans (ATCC 10231). In words: Antifungal activity, agar well zone of inhibition, C. albicans. The class given is cell-based, Candida albicans. As to conditions: 10 μL of 10 mg/mL in 50% DMSO per well, overnight 37 °C, --- = no zone of inhibition. As for the experimental part: as §2

Sequence of Thymidylate synthase (TS) (P04818 whole entry): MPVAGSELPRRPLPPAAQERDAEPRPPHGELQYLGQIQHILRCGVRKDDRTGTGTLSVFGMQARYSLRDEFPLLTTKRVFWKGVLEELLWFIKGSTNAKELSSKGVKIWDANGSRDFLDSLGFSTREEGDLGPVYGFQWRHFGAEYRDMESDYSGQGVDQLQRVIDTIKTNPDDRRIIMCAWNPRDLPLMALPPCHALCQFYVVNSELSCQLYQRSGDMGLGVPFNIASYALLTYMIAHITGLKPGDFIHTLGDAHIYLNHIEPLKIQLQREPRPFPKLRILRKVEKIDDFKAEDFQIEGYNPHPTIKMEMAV

In general, IC50 refers to the concentration that gives 50% inhibition. As usually defined, the melting point is the temperature of the solid-liquid transition. Usually zone of inhibition stands for the size of the clear area around the sample on an inoculated plate. A lower zone of inhibition goes with a weaker effect on the plate. `COc1ccccc1-n1cc(CSc2nnc(COc3cc(C)ccc3C(C)C)o2)nn1` [Compound 7, 4-((5-((2-isopropyl-5-methylphenoxy)methyl)-1,3,4-oxadiazol-2-ylthio)methyl)-1-(2-methoxyphenyl)-1H-1,2,3-triazole] returned a melting point of 81 to 83 °C. In the data set on HCT-116, the IC50 is 3100 nM. Besides, in the data set on HepG2, the “fold active relative to 5-FU, HepG2” value was 16 fold and the IC50 stood at 1800 nM. The IC50 in the data set on MCF-7 was found to be 2400 nM. Besides, in the data set on E. coli (ATCC 31218), the “zone of inhibition E. coli” value worked out at 12 ± 0.34 mm and the zone of inhibition at 10000 µg/mL was 12 mm. The molecule further displayed a half-inhibitory concentration (IC50) in data set [1] of 3520 ± 1200 nM. In the data set on S. aureus (ATCC 29213), the “zone of inhibition S. aureus” value came out at 12 ± 0.34 mm and the zone of inhibition at 10000 µg/mL worked out at 12 mm.

Turning to `Cc1ccc(C(C)C)c(OCc2nnc(SCc3cn(-c4ccccc4O)nn3)o2)c1` [Compound 9, 2-(4-((5-((2-isopropyl-5-methylphenoxy)methyl)-1,3,4-oxadiazol-2-ylthio)methyl)-1H-1,2,3-triazol-1-yl)phenol], the melting point is 86 to 88 °C. Moreover, the IC50 with HCT-116 was found to be 2600 nM. In the data set on HepG2, the “fold active relative to 5-FU, HepG2” value is listed as 20 fold and the IC50 was 1400 nM. In the data set with C. albicans (ATCC 10231), the “zone of inhibition C. albicans” value is listed as 10 ± 0.032 mm. Also, the zone of inhibition at 10000 µg/mL in the data set on C. albicans (ATCC 10231) (Candida albicans, ATCC10231) was 10 mm. In addition, the “times active relative to 5-florouracil, MCF-7” value with MCF-7 ((IC50 18.74 μM)) is listed as 17 times. The IC50 in the data set on MCF-7 amounted to 1100 nM. In the data set with E. coli (ATCC 31218), the “zone of inhibition E. coli” value is recorded as 12 ± 0.36 mm and the zone of inhibition at 10000 µg/mL worked out at 12 mm. The IC50 in data set [1] worked out at 1950 ± 900 nM. Besides, in the data set with S. aureus (ATCC 29213), the “zone of inhibition S. aureus” value is listed as 12 ± 0.34 mm and the zone of inhibition at 10000 µg/mL came out at 12 mm.
